Source: patent US11489184B2, “Electrolyte including mixture of active material and precursor thereof” (Foundation for Research and Business, Seoul National …, priority 2020, dated 2022)
In brackets after ≈: the same amount, converted by molar mass.

Experiments:
Assay type in all cases: physicochemical
[1] = Solubility analysis of NQ derivatives in KOH by UV-vis spectroscopy; conditions: 1 M KOH solution, aqueous buffer, thermodynamic from solid, stirred for 24 hours, upper part measured by UV-vis, substance alone
Protocol: Excessive amounts of solutions of NQ derivatives were prepared. […] When a further period of time elapsed after stirring was stopped, each solution was divided into two parts (upper and lower parts). 400 microliters (L) of the upper part of the solution was collected and observed by a UV-vis spectrometer. An absorbance was measured to determine concentrations of NQ derivatives.
As a control group, a solution with a known concentration of Lawsone was prepared, and UV-vis spectroscopy of the solution was measured. When absorbance peaks of the control group and a sample of NQ derivatives were compared, concentrations of the samples were calibrated and calculated.

[2] = Half-cell cyclic voltammetry, kinetic parameters of NQ derivatives; conditions: 0.01 M in 1 M KOH; for redox potential difference (average difference of anodic and cathodic redox potentials, ΔEp,avg): glassy carbon electrode, scan rate 10 to 100 mV·s^−1
Protocol: To observe electrochemical performance of active species, various half-cell tests were performed as follows by using a computer connected potentiostat (SP-240, BioLogic). Ag/AgCl (soaked in 3.0 M NaCl) and Pt wire were used as a reference electrode and a counter electrode, respectively. […] To this end, kinetic parameters of NQ derivatives were measured and compared. To calculate electrochemical properties of NQ derivatives, the CV curves were used. […] A value of D was measured by a Randles-Sevick's equation.

[3] = Analysis of reaction of NQ-S to NQ-OH in KOH (cyclic voltammetry and UV-vis spectroscopy); conditions: 0.01 M in 1 M KOH, CV; for redox potential: NQ-S right after dissolution
Protocol: Initially, 0.01 M NQ-S was dissolved in 1 M KOH and then the NQ-S solution was stayed for few hours. Changes in a chemical structure of the NQ-S solution were observed using cyclic voltammetry and UV-vis spectroscopy.
For the UV-vis spectroscopy, the following three samples were prepared: (i) NQ-S that is just dissolved in KOH (sample 1); (ii) NQ-S dissolved in KOH for 6 hours (sample 2); and (iii) pristine Lawsone (sample 3). In FIG. 2B, a peak observed at 455 nm corresponds to a peak for NQ-OH, and the peak was clearly observed in sample 2.

[4] = Analysis of ratio of Lawsone and NQ-S (CV curves); conditions: 0.1 M NQ-S dissolved in 1 M KOH (one third transformed)
Protocol: Samples of Lawsone and NQ-S having different ratios were prepared, and a resistance and a solubility of samples were measured electrochemically (by cyclic voltammetry (CV) and electrochemical impedance spectroscopy (EIS)) and optically (by UV-vis spectroscopy).
[…]; (iv) only Lawsone (0.3 M Lawsone); and (v) only NQ-S (0.3 M NQ-S).

solubility at 24 h [1] [mM]	diffusion coefficient D ([2]; CV, Randles-Sevick's equation)	redox potential difference (average difference of anodic and cathodic redox potentials, ΔEp,avg) [2] [V]	redox potential [3] [V vs Ag/AgCl]	desirable NQ-OH formed by transformation of NQ-S [4] [M]	transformation of NQ-S into NQ-OH in KOH ([3]; staying time 6 hours)	Compound
420 (≈ 73.1 mg/mL)	1.75·10^−6 cm^2·s^−1	0.077	−0.55	–	–	O=C1C=C(O)C(=O)c2ccccc21 [Lawsone, 2-hydroxy-1,4-naphthoquinone, reference compound]
–	–	0.077	−0.1	0.033	completely transformed into NQ-OH	O=C1C=C(S(=O)(=O)[O-])c2ccccc2C1=O.[Na+] [NQ-S, 1,2-naphthoquinone-4-sulfonic acid sodium salt]
